Assay results taken from BindingDB's records for doi:10.1016/S0960-894X(01)80865-9 (1993).

Biological target: S-adenosylmethionine decarboxylase proenzyme (Escherichia coli) (UniProt P0A7F6)
Assay: Tested for irreversible inhibitory activity against AdoMet-DC (S-adenosyl-methionine decarboxylase-) isolated from Escherichia coli

S-adenosylmethionine decarboxylase proenzyme (Escherichia coli), sequence (P0A7F6 whole entry, looked up): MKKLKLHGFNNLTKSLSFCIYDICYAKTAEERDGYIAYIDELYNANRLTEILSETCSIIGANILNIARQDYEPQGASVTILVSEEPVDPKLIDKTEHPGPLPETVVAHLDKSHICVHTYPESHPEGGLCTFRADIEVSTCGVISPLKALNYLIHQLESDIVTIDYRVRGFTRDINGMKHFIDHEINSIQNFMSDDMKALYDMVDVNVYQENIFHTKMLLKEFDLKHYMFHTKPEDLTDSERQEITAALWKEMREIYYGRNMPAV

SMILES	Ki
C[S+](C[C@H]1O[C@@H](n2cnc3c(N)ncnc32)[C@H](O)[C@@H]1O)C1CCNC1 (stereo not given in full)	669 µM
Nc1ncnc2c1ncn2[C@@H]1O[C@H](CSC2CCNC2)[C@@H](O)[C@H]1O (stereo not given in full)	415 µM
Nc1ncnc2c1ncn2[C@@H]1O[C@H](CS[C@H]2CN[C@H](C(=O)O)C2)[C@@H](O)[C@H]1O	960 µM
C[S+](C[C@H]1O[C@@H](n2cnc3c(N)ncnc32)[C@H](O)[C@@H]1O)C1C=C[C@H](N)C1 (stereo not given in full)	18 µM
Nc1ncnc2c1ncn2[C@@H]1O[C@H](CS[C@@H]2CN[C@H](C(=O)O)C2)[C@@H](O)[C@H]1O	478 µM
